Test results from patent US11744861B2, “Compositions and methods for selective elimination and replacement of hematopoietic stem cells” (Poseida Therapeutics, Inc., priority 2017, dated 2023).

How the values were obtained:
[1] = tested on: Human pan T-cells with piggyBac integrated iC9; assay: iC9 safety switch test, viability by flow cytometry using 7-AAD; type: cell-based; settings: iC9-containing modified T cells; 24 hours incubation
Description: Human pan T-cells were nucleofected using an Amaxa 4D nucleofector with one of four piggyBac transposons. Modified T cells receiving the “mock” condition were nucleofected with an empty piggyBac transposon. Modified T cells received either a piggyBac […] containing a therapeutic agent alone (a sequence encoding a CARTyrin) or a piggyBac […] containing an integrated iC9 sequence and a therapeutic agent (a sequence encoding a CARTyrin). To test the iC9 safety switch, each of the four modified T cells were incubated for 24 hours with 0, 0.1 nM, 1 nM, 10 nM, 100 nM or 1000 nM AP1903 (an induction agent for […]). Viability was assessed by flow cytometry using 7-aminoactinomycin D (7-AAD), a fluorescent intercalator, as a marker for cells undergoing apoptosis. Cell viability was assessed at day 12 (see FIG. 2). […] Moreover, cell viability was assessed at day 19 (see FIG. 3). […] A quantification of the aggregated results was performed and is provided in FIG. 4, showing the significant impact of the iC9 safety switch on the percent cell viability as a function of the concentration of the induction agent (AP1903) of the iC9 switch for each modified cell type at either day 12 (FIG. 2 and left graph) or day 19 (FIG. 3 and right graph). […] Furthermore, the iC9 safety switch may be functionally expressed as part of a tricistronic vector.

[2] = tested on: CARTyrin-expressing cells; assay: in vitro efficacy of iC9 safety switch with AP1903 (relative viability, live cells per bead events); type: cell-based, Human
Experimental: FIGS. 2A-2B is a series of graphs depicting results of evaluating the in vitro efficacy of an inducible proapoptotic polypeptide (iC9 safety switch) of the disclosure using the exemplary induction agent AP1903. Cells expressing a CARTyrin of the disclosure were A) thawed and rested overnight or B) activated using ImmunoCult™ Human CD3/CD28/CD2 T cell Activator reagent for 5 days were treated with AP1903 for the indicated length of time and concentrations. All data points were collected in triplicate and relative viability determined by dividing the number of live cells in the treatment group by the average number of live cells in the no treatment group per 1,500 bead events collected. Greater than 80% of the non-activated CARTyrin-expressing cells were eliminated from the culture at 24 hours across all dose levels tested (FIG. 1). There was no observable difference between the 24 hour and 48 hour time point in the non-activated cells. In the activated CARTyrin-expressing cells however, both a dose response as well as temporal response were observed. At 12 hours post AP1903 administration, >65% of the cells were killed by concentrations as low as 1 nM. […] Expression of the CARTyrin is be increased upon activation of the cells, and provided the vector design; the expression of iC9 could also increase. Therefore, an activated cell may express higher levels of iC9 making it more sensitive to AP1903. In many embodiments, the activated cells will be the target if and when employing the safety switch.

In the case of `CC[C@H](C(=O)N1CCCC[C@H]1C(=O)O[C@H](CCc1ccc(OC)c(OC)c1)c1cccc(OCC(=O)NCCNC(=O)COc2cccc([C@@H](CCc3ccc(OC)c(OC)c3)OC(=O)[C@@H]3CCCCN3C(=O)[C@@H](CC)c3cc(OC)c(OC)c(OC)c3)c2)c1)c1cc(OC)c(OC)c(OC)c1` [AP1903], the “concentration at which apoptosis is induced (lowest of the study)” value [1] is reported as 0.1 nM, the cells killed ([2]; activated CARTyrin-expressing cells, 12 hours post AP1903, concentrations as low as 1 nM) is reported as > 65% and the cells killed ([2]; activated cells, 48 hours) is reported as > 95%. For the same compound, the “cells eliminated from the culture” value ([2]; non-activated CARTyrin-expressing cells, 24 hours, all dose levels tested) was “Greater than 80%”.
